Assay results from BindingDB's records for doi:10.1021/jm0506625 (Washington University, 2005).
Where a SMILES comes first, the peptide text is derived from it. [ ]: non-standard residue; d: D form. ξ: configuration not given here. Ile(3ξ) = CCC(C)[C@H](N)C(=O)O; Thr(3ξ) = CC(O)[C@H](N)C(=O)O

Tests used:
Caspase-3 = target: T1, Caspase-3 (Homo sapiens, UniProt P42574); test: Caspase Inhibition Assay
T1 sequence (P42574 whole entry): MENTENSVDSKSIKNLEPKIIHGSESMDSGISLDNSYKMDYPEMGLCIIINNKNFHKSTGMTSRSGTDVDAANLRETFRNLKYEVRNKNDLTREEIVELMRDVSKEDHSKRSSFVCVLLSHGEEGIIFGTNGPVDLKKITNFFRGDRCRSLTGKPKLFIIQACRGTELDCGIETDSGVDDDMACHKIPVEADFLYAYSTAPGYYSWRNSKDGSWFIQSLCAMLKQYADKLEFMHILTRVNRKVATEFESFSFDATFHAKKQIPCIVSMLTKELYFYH
Method: (§1) The substrate peptides terminating in AMC are processed by caspases with or without inhibitors. […] Compounds were tested in duplicate, and IC50 curves were calculated for all inhibitors. Final IC50s were the average of three independent experiments.

Caspase-8 = Caspase-8 (Homo sapiens, UniProt Q14790); test: Caspase Inhibition Assay
Sequence of Caspase-8 (Q14790 217-374 limits assumed): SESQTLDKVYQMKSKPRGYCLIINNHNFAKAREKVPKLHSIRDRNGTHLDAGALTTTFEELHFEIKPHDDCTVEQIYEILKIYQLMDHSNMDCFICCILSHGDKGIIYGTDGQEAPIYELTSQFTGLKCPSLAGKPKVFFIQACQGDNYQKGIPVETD
Sequence of Caspase-8 (Q14790 385-479 limits assumed): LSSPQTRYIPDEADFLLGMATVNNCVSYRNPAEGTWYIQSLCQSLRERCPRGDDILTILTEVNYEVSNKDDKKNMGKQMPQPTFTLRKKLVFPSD
Method: as §1

SMILES	Ki (Caspase-3) [nM]	IC50 (Caspase-8) [nM]
COc1ccc(CN2C(=O)C(=O)c3cc(S(=O)(=O)N4CCC[C@H]4COc4cccnc4)ccc32)cc1 [1-[(4-methoxyphenyl)methyl]-5-{[(2S)-2-[(pyridin-3-yloxy)methyl]pyrrolidine-1-]sulfonyl}-2,3-dihydro-1H-indole-2,3-dione]	4.4	–
CCC(C)[C@H](NC(C)=O)C(=O)N[C@@H](CCC(=O)O)C(=O)N[C@H](C(=O)N[C@H](C=O)CC(=O)O)C(C)O (stereo partly drawn) [(4S)-4-{[(1S)-1-{[(2S)-1-carboxy-3-oxopropan-2-yl]carbamoyl}-2-hydroxypropyl]carbamoyl}-4-[(2S)-2-acetamido-3-methylpentanamido]butanoic acid] (Ac-[Ile(3ξ)]E[Thr(3ξ)]D-aldehyde)	–	4.7
